In US10533006B2, “Nitrogen-containing heterocycle and carbocycle derivatives having TrkA inhibitory activity” (Shionogi & Co., Ltd., priority 2016, dated 2020):

Target: T1, human TrkA (Homo sapiens, UniProt P04629)
T1 construct: purchased Lifetechnologies PV3144
Test: Human TrkA inhibition assay
Format: biochemical
Conditions: human TrkA phosphorylation inhibition, ATP 500 μmol/L; read-out: IC50_nM
Method: Seven point five L per well of human TrkA (PV3144, Lifetechnologies, final concentration: 1 nmol/L) suspended in the assay buffer (100 mmol/L 4-(2-hydroxyethyl)-1-piperazineethanesulfonic acid (HEPES), 10 mmol/L magnesium chloride, 0.003 vol % Brij-35, 0.004 vol % Tween20 and 1 mmol/L dithiothreitol (DTT)) was applied in a 384 well plate and the plate was pre-incubated for 15 min at room temperature with 0.4 μL of each compound (final concentration: 200 μmol/L-0.1 nM) dissolved in DMSO. Then, fluorescent substrate (FL-peptide 27, 760424, PerkinElmer, final concentration: 1.5 μmol/L) and ATP (final concentration 500 μmol/L) dissolved in the assay buffer was added in each well. After the incubation of 120 min at 37° C., fifteen μL of termination buffer (100 mmol/L HEPES, 40 mmol/L ethylenediaminetetraacetic acid (EDTA), 10 mmol/L magnesium chloride, 0.003 vol % Brij-35, 0.004 vol % Tween20, 1 mmol/L DTT and 0.16 vol % Coating Reagent 3) was added in each well to stop the enzyme reaction. Fluorescent intensities (FI) of phosphorylated and non-phosphorylated fluorescent substrates were measured by LabChip EZReader II (Caliper LifeSciences, Inc.), and conversion ratio (CR) was calculated by the following formula-1. The CR in the well applied with DMSO alone was used as a negative control and the CR in the well without applying TrkA was used as a positive control. The inhibitory effect of each compound on TrkA phosphorylation was calculated by the following formula-2. CR (%)=(FI of phosphorylated substrate/(FI of phosphorylated substrate+FI of non-phosphorylated substrate))×100 (Formula-1) Phosphorylation inhibition (%)=(1−(CR with compound treatment−CR of positive control)/(CR of negative control−CR of positive control))×100 (Formula-2)
IC50 values (nmol/L) were determined by the logistic regression using the inhibition data in 10 points of 3-fold dilution series at a compound concentration range of 2 μmol/L to 0.1 nmol/L, or 15 points of 3-fold dilution series at the range of 200 μmol/L to 0.04 nmol/L.

T1 sequence (P04629 33-796): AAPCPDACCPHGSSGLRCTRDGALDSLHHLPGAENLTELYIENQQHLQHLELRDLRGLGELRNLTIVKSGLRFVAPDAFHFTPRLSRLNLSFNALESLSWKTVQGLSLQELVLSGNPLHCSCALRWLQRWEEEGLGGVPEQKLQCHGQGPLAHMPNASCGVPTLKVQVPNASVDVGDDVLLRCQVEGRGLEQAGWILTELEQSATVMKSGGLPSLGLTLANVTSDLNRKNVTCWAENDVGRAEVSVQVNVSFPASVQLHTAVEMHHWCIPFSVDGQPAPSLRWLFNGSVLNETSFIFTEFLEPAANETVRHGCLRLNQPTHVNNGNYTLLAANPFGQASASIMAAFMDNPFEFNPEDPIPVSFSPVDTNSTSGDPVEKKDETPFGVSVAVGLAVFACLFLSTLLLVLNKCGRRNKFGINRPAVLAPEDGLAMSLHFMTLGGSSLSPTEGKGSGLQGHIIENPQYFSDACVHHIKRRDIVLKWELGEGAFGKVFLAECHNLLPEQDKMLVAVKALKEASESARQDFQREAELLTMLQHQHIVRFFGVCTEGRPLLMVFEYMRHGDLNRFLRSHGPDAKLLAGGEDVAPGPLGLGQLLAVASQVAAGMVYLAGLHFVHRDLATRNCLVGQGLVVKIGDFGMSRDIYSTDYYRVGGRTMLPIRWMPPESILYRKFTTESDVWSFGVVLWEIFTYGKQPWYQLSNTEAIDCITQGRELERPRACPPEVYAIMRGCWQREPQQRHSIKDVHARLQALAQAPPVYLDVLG

Structure (SMILES)	IC50 [nM]
CCOc1ncc(-c2nn(-c3ccccc3)c(NC(=O)N[C@@H]3CN(CCOC)C[C@H]3c3ccccc3)c2C)cc1C(=O)NC1CCOCC1 (racemic) [Compound I-140]	< 100
COCCOc1ncc(-c2nn(-c3ccccc3)c(NC(=O)N[C@@H]3CN(CCOC)C[C@H]3c3ccccc3)c2C)cc1C(=O)NC1CCOCC1 (racemic) [Compound I-141]	< 100
COCCN1C[C@@H](NC(=O)Nc2c(C)c(-c3cnc(OCC(F)F)c(C(=O)NC4CCOCC4)c3)nn2-c2ccccc2)[C@H](c2ccccc2)C1 (racemic) [Compound I-142]	< 100
COCCN1C[C@@H](NC(=O)Nc2c(C)c(-c3cnc(OCF)c(C(=O)NC4CCOCC4)c3)nn2-c2ccccc2)[C@H](c2ccccc2)C1 (racemic) [Compound I-143]	< 100
COCCN1C[C@@H](NC(=O)Nc2c(C)c(-c3cnc(OC)c(C(=O)NC#N)c3)nn2-c2ccccc2)[C@H](c2ccccc2)C1 (racemic) [Compound I-146]	< 100
COCCN1C[C@@H](NC(=O)Nc2c(C)c(-c3cnc(OC)c(C(=O)NS(C)(=O)=O)c3)nn2-c2ccccc2)[C@H](c2ccccc2)C1 (racemic) [Compound I-147]	< 100
COCCN1C[C@@H](NC(=O)Nc2c(C)c(-c3ccc(C(=O)NO)nc3)nn2-c2ccccc2)[C@H](c2ccccc2)C1 (racemic) [Compound I-150]	< 100
CCOC(=O)NC(=O)c1cc(-c2nn(-c3ccccc3)c(NC(=O)N[C@@H]3CN(CCOC)C[C@H]3c3ccccc3)c2C)cnc1OC (racemic) [Compound I-157]	< 100
COCCN1C[C@@H](NC(=O)Nc2c(C)c(-c3cnc(OC)c(C(=O)NC(=O)N(C)C)c3)nn2-c2ccccc2)[C@H](c2ccccc2)C1 (racemic) [Compound I-158]	< 100
COCCN1C[C@@H](NC(=O)Nc2c(C)c(-c3cnc(OC)c(C(N)=O)c3)nn2-c2ccccc2)[C@H](c2ccccc2)C1 (racemic) [Compound I-161]	< 100
COCCN1C[C@@H](NC(=O)Nc2c(C)c(-c3cnn(C)c3)nn2-c2ccccc2)[C@H](c2ccnc(F)c2F)C1 (racemic) [Compound I-162]	< 100
COCCN1C[C@@H](NC(=O)Nc2c(C)c(-c3ccc4c(cnn4C)c3)nn2-c2ccccc2)[C@H](c2ccc(F)c(F)c2)C1 [Compound I-6]	< 100
COCC[C@@H]1C[C@@H](NC(=O)Nc2c(C)c(-c3ccc4c(cnn4C)c3)nn2-c2ccccc2)[C@H](c2ccc(F)c(F)c2)N1 [Compound I-8]	< 100

The remaining lines, values ahead:

IC50 [nM]	Structure (SMILES)
< 100	CCNC(=O)c1cc(-c2nn(-c3ccccc3)c(NC(=O)N[C@@H]3CN(CCOC)C[C@H]3c3ccccc3)c2C)cnc1OCF (racemic) [Compound I-132]
< 100	CCNC(=O)c1cc(-c2nn(-c3ccccc3)c(NC(=O)N[C@@H]3CN(CCOC)C[C@H]3c3ccccc3)c2C)cn(CCOC)c1=O (racemic) [Compound I-133]
< 100	CCNC(=O)c1cc(-c2nn(-c3ccccc3)c(NC(=O)N[C@@H]3CN(CCOC)C[C@H]3c3ccccc3)c2C)cnc1OC(F)F (racemic) [Compound I-134]
< 100	COCCN1C[C@@H](NC(=O)Nc2c(C)c(-c3cnc4nccnc4c3)nn2-c2ccccc2)[C@H](c2ccccc2)C1 (racemic) [Compound I-135]
< 100	COCCN1C[C@@H](NC(=O)Nc2c(C)c(-c3cc(C(=O)NC4CCOCC4)c(=O)n(CCOC)c3)nn2-c2ccccc2)[C@H](c2ccccc2)C1 (racemic) [Compound I-136]
< 100	COCCN1C[C@@H](NC(=O)Nc2c(C)c(-c3cnc4cccnc4c3)nn2-c2ccccc2)[C@H](c2ccccc2)C1 (racemic) [Compound I-137]
< 100	COCCN1C[C@@H](NC(=O)Nc2c(C)c(-c3cnc(OC)c(C(=O)NO)c3)nn2-c2ccccc2)[C@H](c2ccccc2)C1 (racemic) [Compound I-138]
< 100	COCCN1C[C@@H](NC(=O)Nc2c(C)c(-c3cc(C(=O)NO)c(=O)n(C)c3)nn2-c2ccccc2)[C@H](c2ccccc2)C1 (racemic) [Compound I-139]
